Results as given in ChEMBL document CHEMBL5390246, “Design, synthesis and SAR of novel 7-azaindole derivatives as potential Erk5 kinase inhibitor with anticancer activity” (Bioorg Med Chem, 2023).
≈ marks a conversion by molar mass, not a printed value. Calls of active or inactive are those of the source. The rule behind the calls is not given here.

Assays:
A549 [1] = test: Antiproliferative activity against human A549 cells assessed as cell growth inhibition rate at 20 ug/mL incubated for 48 hrs by MTT assay relative to control; format: functional; set-up: scale not given: the % may be the effect or the level left; settings: dose 20 µg/ml
A549 [2] = test: Antiproliferative activity against human A549 cells assessed as cell growth inhibition incubated for 48 hrs by MTT assay; format: functional, cell-based; settings: A549, 48 h
A549 [3] = test: Induction of apoptosis in human A549 cells assessed as chromatin condensation at 2.5 to 10 uM incubated for 48 hrs by DAPI staining based fluorescence microscopic analysis; format: functional, cell-based; settings: dose 2.5-10 µM
A549 [4] = test: Antitumor activity against human A549 cells assessed as decrease in phosphorylation of Erk5 incubated for 48 hrs by Western blotting analysis; format: functional, cell-based; settings: dose 2.5-10 µM
A549 [5] = test: Induction of apoptosis in human A549 cells assessed as inhibition of colony formation incubated for 10 days by crystal violet staining based assay; format: functional, cell-based; settings: dose 2.5-10 µM, time 10.0 day
A549 [6] = test: Induction of apoptosis in human A549 cells assessed as irregular cell morphology at 2.5 to 10 uM incubated for 48 hrs by light microscopic analysis; format: functional, cell-based; settings: dose 2.5-10 µM
A549 [7] = test: Induction of apoptosis in human A549 cells assessed as formation of apoptotic bodies at 2.5 to 10 uM incubated for 48 hrs by DAPI staining based fluorescence microscopic analysis; format: functional, cell-based; settings: dose 2.5-10 µM

SMILES | Activity (A549 [1]) [%] | further results
O=[N+]([O-])c1ccc(CN2CC=C(c3c[nH]c4ncccc34)CC2)cc1 | 16.85 | –
Clc1ccc(CN2CC=C(c3c[nH]c4ccccc34)CC2)cc1Cl | 56.41 | –
Fc1ccccc1C(=S)N1CC=C(c2c[nH]c3ncccc23)CC1 | 65.92 | –
N#Cc1ccc(C(=O)N2CC=C(c3c[nH]c4ncccc34)CC2)cc1 | 21.45 | –
Cc1ccc(CN2CC=C(c3c[nH]c4ncccc34)CC2)cc1 | 54.95 | –
O=C(c1ccc2ccccc2c1)N1CC=C(c2c[nH]c3ncccc23)CC1 | 62.25 | –
O=C(c1ccccc1F)N1CC=C(c2c[nH]c3ncccc23)CC1 | 75.54 | IC50 (A549 [2]): 8.52 µg/mL (≈ 26.5 µM)
Cc1ccc(C(=O)N2CC=C(c3c[nH]c4ncccc34)CC2)cc1 | 41.24 | –
Brc1ccc(CN2CC=C(c3c[nH]c4ncccc34)CC2)cc1 | -25.78 | –
Clc1ccccc1CN1CC=C(c2c[nH]c3ncccc23)CC1 | 84.18 | IC50 (A549 [2]): 12 µg/mL (≈ 37 µM)
O=C(c1ccc(Cl)cc1)N1CC=C(c2c[nH]c3ccccc23)CC1 | 67.52 | –
C1=C(c2c[nH]c3ncccc23)CCN(Cc2ccccc2)C1 | 44.74 | –
O=C(c1ccc(Cl)cc1)N1CCC(c2c[nH]c3ncccc23)CC1 | 50.17 | –
O=C(c1cccc(Cl)c1)N1CC=C(c2c[nH]c3ncccc23)CC1 | 73.66 | IC50 (A549 [2]): 10.3 µg/mL (≈ 30.6 µM)
Clc1ccc(CN2CC=C(c3c[nH]c4ncccc34)CC2)cc1 | 0.74 | –
O=C(c1ccc([N+](=O)[O-])cc1)N1CC=C(c2c[nH]c3ncccc23)CC1 | 69.77 | –
N#Cc1ccc(CN2CC=C(c3c[nH]c4ncccc34)CC2)cc1 | 9.76 | –
Clc1cccc(CN2CC=C(c3c[nH]c4ncccc34)CC2)c1 | 52.55 | –
O=C(c1ccc(C(F)(F)F)cc1)N1CC=C(c2c[nH]c3ncccc23)CC1 | 65.74 | –
Fc1ccccc1CN1CC=C(c2c[nH]c3ncccc23)CC1 | 3.55 | –

SMILES | Activity (A549 [1]) [%] | further results
O=C(c1ccccc1F)N1CC=C(c2c[nH]c3ccccc23)CC1 | 50.26 | –
C1=C(c2c[nH]c3ncccc23)CCN(Cc2ccc3ccccc3c2)C1 | 90.08 | Activity (A549 [3]): Active; IC50 (A549 [2]): 4.56 µg/mL (≈ 13.4 µM); Activity (A549 [4]): Dose-Dependent Effect; Activity (A549 [5]): Dose-Dependent Effect; Activity (A549 [6]): Active; Activity (A549 [7]): Active
c1ccc2cc(CN3CCC(c4c[nH]c5ncccc45)CC3)ccc2c1 | 76.69 | –
C1=C(c2c[nH]c3ccccc23)CCN(Cc2ccc3ccccc3c2)C1 | 70.17 | –
O=C(c1ccccc1)N1CC=C(c2c[nH]c3ncccc23)CC1 | 58.37 | –
Nc1ccc(C(=O)N2CC=C(c3c[nH]c4ncccc34)CC2)cc1 | 45.12 | –
FC(F)(F)Oc1ccc(CN2CC=C(c3c[nH]c4ncccc34)CC2)cc1 | 46.56 | –
O=C(c1ccccc1F)N1CCC(c2c[nH]c3ncccc23)CC1 | 48.02 | –
O=C(c1ccccc1Cl)N1CC=C(c2c[nH]c3ncccc23)CC1 | 52.62 | –
FC(F)(F)c1ccc(CN2CC=C(c3c[nH]c4ncccc34)CC2)cc1 | 44.64 | –
O=C(c1ccc(Cl)c(Cl)c1)N1CC=C(c2c[nH]c3ncccc23)CC1 | 66.12 | –
COc1ccc(C(=O)N2CC=C(c3c[nH]c4ncccc34)CC2)cc1 | 70.89 | IC50 (A549 [2]): 10.4 µg/mL (≈ 31.3 µM)
O=C(c1ccc(Br)cc1)N1CC=C(c2c[nH]c3ncccc23)CC1 | 71.11 | IC50 (A549 [2]): 11 µg/mL (≈ 28.7 µM)
Clc1ccc(CN2CC=C(c3c[nH]c4ncccc34)CC2)cc1Cl | 80.28 | IC50 (A549 [2]): 7.33 µg/mL (≈ 20.5 µM)
O=C(c1ccc(F)cc1)N1CC=C(c2c[nH]c3ncccc23)CC1 | 59.94 | –
O=C(c1ccc(Cl)cc1)N1CC=C(c2c[nH]c3ncccc23)CC1 | 82.78 | Activity (A549 [3]): Active; IC50 (A549 [2]): 6.23 µg/mL (≈ 18.4 µM); Activity (A549 [4]): Dose-Dependent Effect; Activity (A549 [5]): Dose-Dependent Effect; Activity (A549 [6]): Active; Activity (A549 [7]): Active
Fc1ccc(CN2CC=C(c3c[nH]c4ncccc34)CC2)cc1 | 43.89 | –
COc1ccc(CN2CC=C(c3c[nH]c4ncccc34)CC2)cc1 | -3.33 | –
Clc1ccc(CN2CCC(c3c[nH]c4ncccc34)CC2)cc1Cl | 32.22 | –
S=C(c1ccc(Cl)cc1)N1CC=C(c2c[nH]c3ncccc23)CC1 | 51.43 | –
